Results published in the supplement of paper PMC11451515.

Key:
Details in all cases: 48 h
SEM cells [1] = assay: cell viability relative to DMSO control; higher = less cytotoxic
In short: (§1)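 Leukemia cells (NOMO1 or SEM, 500 cells/well; P12-Ichikawa, 1000 cells/well) were seeded in 5 μl in 1536-well plates after at least four passages of adaptation to each medium. They received library compounds in DMSO by pin dosing, 11 threefold points from 47 μM to 0.79 nM. Luminescence with CellTiter-Glo One was read after 48 h at 37°C. Viability is stated per plate relative to DMSO wells, with cell-free wells as background.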

NOMO1 [2] = assay: as above
In short: as §1

P12-Ichikawa [3] = assay: as above
In short: as §1

SEM cells [4] = assay: AUC of viability dose-response curve (% viability x log10 dose units); higher = less sensitive
In short: (§2)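 Seeding of medium-adapted leukemia cells was at 500 or 1000 cells/well in 1536-well plates, followed by 48 h at 37°C with library compounds in DMSO at 11 threefold doses from 47 μM to 0.79 nM. CellTiter-Glo One luminescence was normalised per plate to DMSO and cell-free wells and fitted as a four-parameter log-logistic function of log10 dose. Area under the curve was integrated by trapezoidal rule, with curves exceeding full viability scaled and curves failing quality control removed.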

NOMO1 [5] = assay: as above
In short: as §2

P12-Ichikawa [6] = assay: as above
In short: as §2

CC1(C)CCC(C)(C)c2cc(NC(=O)c3ccc(C(=O)O)cc3)ccc21
cell viability [%]
Details | NOMO1 [2] | P12-Ichikawa [3] | SEM cells [1]
HPLM + 10% dialyzed FBS, 0.000781 µM | 91.4 | 73.7 | 88.1
HPLM + 10% dialyzed FBS, 0.00234 µM | 91 | 116 | 107
HPLM + 10% dialyzed FBS, 0.00702 µM | 98.5 | 101 | 98.5
HPLM + 10% dialyzed FBS, 0.0211 µM | 111 | 102 | 107
HPLM + 10% dialyzed FBS, 0.0632 µM | 101 | 107 | 115
HPLM + 10% dialyzed FBS, 0.19 µM | 100 | 106 | 101
HPLM + 10% dialyzed FBS, 0.569 µM | 98.1 | 105 | 124
HPLM + 10% dialyzed FBS, 1.71 µM | 109 | 104 | 110
HPLM + 10% dialyzed FBS, 5.12 µM | 79.9 | 106 | 104
HPLM + 10% dialyzed FBS, 15.4 µM | 92.9 | 101 | 120
HPLM + 10% dialyzed FBS, 46.1 µM | 60.7 | 96.4 | 97.4
RPMI 5 mM glucose + 10% FBS, 0.000781 µM | 85.7 | 102 | 100
RPMI 5 mM glucose + 10% FBS, 0.00234 µM | 90.6 | 103 | 93.3
RPMI 5 mM glucose + 10% FBS, 0.00702 µM | 89.8 | 93.9 | 111
RPMI 5 mM glucose + 10% FBS, 0.0211 µM | 97.5 | 96.2 | 115
RPMI 5 mM glucose + 10% FBS, 0.0632 µM | 95.4 | 103 | 119
RPMI 5 mM glucose + 10% FBS, 0.19 µM | 97.3 | 97.8 | 111
RPMI 5 mM glucose + 10% FBS, 0.569 µM | 99.8 | 104 | 113
RPMI 5 mM glucose + 10% FBS, 1.71 µM | 101 | 109 | 111
RPMI 5 mM glucose + 10% FBS, 5.12 µM | 98.5 | 101 | 116
RPMI 5 mM glucose + 10% FBS, 15.4 µM | 94.4 | 98.9 | 123
RPMI 5 mM glucose + 10% FBS, 46.1 µM | 76.1 | 88.5 | 105
RPMI 5 mM glucose + 10% dialyzed FBS, 0.000781 µM | 99.8 | 96.2 | 90.9
RPMI 5 mM glucose + 10% dialyzed FBS, 0.00234 µM | 91.9 | 104 | 92.4
RPMI 5 mM glucose + 10% dialyzed FBS, 0.00702 µM | 91.3 | 98.4 | 84.7
RPMI 5 mM glucose + 10% dialyzed FBS, 0.0211 µM | 89.8 | 108 | 95.6
RPMI 5 mM glucose + 10% dialyzed FBS, 0.0632 µM | 97.7 | 110 | 91.9
RPMI 5 mM glucose + 10% dialyzed FBS, 0.19 µM | 90.2 | 105 | 93
RPMI 5 mM glucose + 10% dialyzed FBS, 0.569 µM | 95.3 | 116 | 103
RPMI 5 mM glucose + 10% dialyzed FBS, 1.71 µM | 93 | 108 | 94.6
RPMI 5 mM glucose + 10% dialyzed FBS, 5.12 µM | 88.2 | 107 | 105
RPMI 5 mM glucose + 10% dialyzed FBS, 15.4 µM | 84.5 | 102 | 101
RPMI 5 mM glucose + 10% dialyzed FBS, 46.1 µM | 75.9 | 79.6 | 87.7

AUC of viability dose-response curve
Details | NOMO1 [5] | P12-Ichikawa [6] | SEM cells [4]
HPLM + 10% dialyzed FBS | 455 | 463 | 464
RPMI 5 mM glucose + 10% FBS | 445 | 470 | 465
RPMI 5 mM glucose + 10% dialyzed FBS | 435 | 469 | 451

CNC(=O)c1nn(C)c2c1C(C)(C)Cc1cnc(Nc3ccc(N4CCN(C)CC4)cc3)nc1-2
cell viability [%]
Details | NOMO1 [2] | P12-Ichikawa [3] | SEM cells [1]
HPLM + 10% dialyzed FBS, 0.000781 µM | 125 | 106 | 108
HPLM + 10% dialyzed FBS, 0.00234 µM | 108 | 107 | 101
HPLM + 10% dialyzed FBS, 0.00702 µM | 104 | 112 | 103
HPLM + 10% dialyzed FBS, 0.0211 µM | 104 | 105 | 93
HPLM + 10% dialyzed FBS, 0.0632 µM | 99.7 | 108 | 89.1
HPLM + 10% dialyzed FBS, 0.19 µM | 113 | 111 | 64.6
HPLM + 10% dialyzed FBS, 0.569 µM | 103 | 108 | 39.3
HPLM + 10% dialyzed FBS, 1.71 µM | 65.8 | 83.7 | 16
HPLM + 10% dialyzed FBS, 5.12 µM | 55.6 | 76 | 12
HPLM + 10% dialyzed FBS, 15.4 µM | 47.8 | 36.7 | 7.99
HPLM + 10% dialyzed FBS, 46.1 µM | 8.74 | 35.6 | 7.09
RPMI 5 mM glucose + 10% FBS, 0.000781 µM | 111 | 113 | 115
RPMI 5 mM glucose + 10% FBS, 0.00234 µM | 114 | 113 | 97.1
RPMI 5 mM glucose + 10% FBS, 0.00702 µM | 103 | 119 | 113
RPMI 5 mM glucose + 10% FBS, 0.0211 µM | 107 | 123 | 104
RPMI 5 mM glucose + 10% FBS, 0.0632 µM | 115 | 117 | 86.5
RPMI 5 mM glucose + 10% FBS, 0.19 µM | 111 | 120 | 67.4
RPMI 5 mM glucose + 10% FBS, 0.569 µM | 100 | 109 | 48.8
RPMI 5 mM glucose + 10% FBS, 1.71 µM | 86.6 | 79 | 13.8
RPMI 5 mM glucose + 10% FBS, 5.12 µM | 78.8 | 65.4 | 8.18
RPMI 5 mM glucose + 10% FBS, 15.4 µM | 48.3 | 44.8 | 5.66
RPMI 5 mM glucose + 10% FBS, 46.1 µM | 13.2 | 26.4 | 2.21
RPMI 5 mM glucose + 10% dialyzed FBS, 0.000781 µM | 113 | 107 | 97.9
RPMI 5 mM glucose + 10% dialyzed FBS, 0.00234 µM | 102 | 119 | 101
RPMI 5 mM glucose + 10% dialyzed FBS, 0.00702 µM | 107 | 123 | 101
RPMI 5 mM glucose + 10% dialyzed FBS, 0.0211 µM | 106 | 123 | 110
RPMI 5 mM glucose + 10% dialyzed FBS, 0.0632 µM | 118 | 110 | 78.6
RPMI 5 mM glucose + 10% dialyzed FBS, 0.19 µM | 108 | 115 | 69.5
RPMI 5 mM glucose + 10% dialyzed FBS, 0.569 µM | 103 | 95.9 | 47.2
RPMI 5 mM glucose + 10% dialyzed FBS, 1.71 µM | 75.6 | 77.1 | 16.8
RPMI 5 mM glucose + 10% dialyzed FBS, 5.12 µM | 66 | 61.9 | 9.79
RPMI 5 mM glucose + 10% dialyzed FBS, 15.4 µM | 46.8 | 36.1 | 7.03
RPMI 5 mM glucose + 10% dialyzed FBS, 46.1 µM | 8.73 | 35.3 | 4.75

AUC of viability dose-response curve
Details | NOMO1 [5] | P12-Ichikawa [6] | SEM cells [4]
HPLM + 10% dialyzed FBS | 371 | 404 | 269
RPMI 5 mM glucose + 10% FBS | 400 | 384 | 265
RPMI 5 mM glucose + 10% dialyzed FBS | 386 | 376 | 275
